{
  "source": "patent US20170009266A1",
  "about": "“PROCESS FOR THE ATTACHMENT OF A GALNAC MOIETY COMPRISING A (HETERO)ARYL GROUP TO A GLCNAC MOIETY, AND PRODUCT OBTAINED THEREBY” (SYNAFFIX B.V., priority 2014, published 2017)",
  "key": {"[1]": {"target": "T1, β(1,4)-Gal-T1(Y289L) (Bos taurus, UniProt P08037, I205M/L206V/P187L/V158I/Y289L)", "T1 construct": "made in house; host or cells: E. coli", "T1 sequence (P08037 1-402 V158I/P187L/I205M/L206V/Y289L)": "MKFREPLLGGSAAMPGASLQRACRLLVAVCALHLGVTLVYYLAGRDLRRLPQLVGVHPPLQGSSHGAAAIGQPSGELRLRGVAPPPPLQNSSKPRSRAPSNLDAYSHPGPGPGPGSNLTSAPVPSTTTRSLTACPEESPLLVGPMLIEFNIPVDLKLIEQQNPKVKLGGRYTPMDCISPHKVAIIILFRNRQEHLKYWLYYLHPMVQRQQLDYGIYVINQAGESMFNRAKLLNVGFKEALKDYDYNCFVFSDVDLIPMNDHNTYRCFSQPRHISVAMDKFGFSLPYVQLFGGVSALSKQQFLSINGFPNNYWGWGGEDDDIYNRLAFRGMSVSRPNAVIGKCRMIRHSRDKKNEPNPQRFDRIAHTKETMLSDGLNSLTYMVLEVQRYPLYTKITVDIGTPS", "experiment": "Glycosyltransfer of UDP-galactosamine derivatives to trimmed trastuzumab with Gal-T1(Y289L) expressed in E. coli, mass spectral analysis", "format": "biochemical, bovine", "settings": "trimmed trastuzumab 10 mg/mL; UDP derivative 7 mM; enzyme 2 mg/mL; pH 8.0, 30° C. overnight; reduced sample", "procedure": "General Protocol for Glycosyltransfer of Galactose Derivative UDP-GalNAz 21-24 with Gal-T1(Y289L) (Expressed in E. coli).\nEnzymatic introduction of UDP-Gal derivatives 21-24 onto deglycosylated trastuzumab was effected with a mutant of bovine β(1,4)-galactosyltransferase [β(1,4)-Gal-T1(Y289L)] (expressed in E. coli). The deglycosylated trastuzumab (10 mg/mL) was incubated with the appropriate UDP-galactose derivative (0.4 mM) and β(1,4)-Gal-T1(Y289L) (1 mg/mL) in 10 mM MnCl2 and 25 mM Tris-HCl pH 8.0 for 16 hours at 30° C.\nNext, the functionalized trastuzumab was incubated with protein A agarose (40 μL per mg IgG) for 2 hours at 4° C. The protein A agarose was washed three times with PBS and the IgG was eluted with 100 mM glycine-HCl pH 2.7. The eluted IgG was neutralized with 1 M Tris-HCl pH 8.0 and concentrated and washed with PBS using an Amicon Ultra-0.5, Ultracel-10 Membrane (Millipore) to a concentration of 15-20 mg/mL.\nTrimmed trastuzumab (10 mg/mL, 3.3 nmol), obtained by Endo S treatment of trastuzumab, was incubated with UDP-galactosamine variant 21 (2.5 mM) and β(1,4)-Gal-T1(Y289L) (0.68 mg/mL, 45 μL) in 10 mM MnCl2 and 25 mM Tris-HCl pH 8.0 at 30° C. overnight.\nTrimmed trastuzumab (10 mg/mL, 1.3 nmol), obtained by Endo S treatment of trastuzumab, was incubated with UDP-galactosamine variant 22 (4 mM) and β(1,4)-Gal-T1(Y289L) (1.4 mg/mL, 10 μL) in 10 mM MnCl2 and 25 mM Tris-HCl pH 8.0 at 30° C. overnight. Mass spectral analysis of the reduced sample indicated the formation of the product (49750.9 Da, approximately 80% of total heavy chain), resulting from galactosamide furan-2-carboxyl acid transfer to core GlcNAc(Fuc) substituted trastuzumab heavy chain as shown in FIG. 9.\nTrimmed trastuzumab (10 mg/mL, 6.6 nmol), obtained by Endo S treatment of trastuzumab, was incubated with the 4-azido-3,5-difluorobenzoyl derivative of UDP-galactosamine (23, 7 mM) and β(1,4)-Gal-T1(Y289L) (2 mg/mL) in 10 mM MnCl2 and 25 mM Tris-HCl pH 8.0 at 30° C. overnight. Mass spectral analysis of the reduced sample indicated the formation of a one major product (49813 Da, approximately 90% of total heavy chain), resulting from transfer of 23 to core GlcNAc(Fuc)-substituted trastuzumab heavy chain.\nTrimmed trastuzumab (10 mg/mL, 1.3 nmol), obtained by Endo S treatment of trastuzumab, was incubated with UDP-galactosamine variant 24 (4 mM) and (3(1,4)-Gal-T1(Y289L) (1.4 mg/mL, 10 μL) in 10 mM MnCl2 and 25 mM Tris-HCl pH 8.0 at 30° C. overnight."}, "[2]": {"target": "T2, Gal-T1(Y289G) (Bos taurus, UniProt P08037, I205M/L206V/P187L/V158I/Y289G)", "T2 construct": "host or cells: CHO K1", "T2 sequence (P08037 74-402 V158I/P187L/I205M/L206V/Y289G)": "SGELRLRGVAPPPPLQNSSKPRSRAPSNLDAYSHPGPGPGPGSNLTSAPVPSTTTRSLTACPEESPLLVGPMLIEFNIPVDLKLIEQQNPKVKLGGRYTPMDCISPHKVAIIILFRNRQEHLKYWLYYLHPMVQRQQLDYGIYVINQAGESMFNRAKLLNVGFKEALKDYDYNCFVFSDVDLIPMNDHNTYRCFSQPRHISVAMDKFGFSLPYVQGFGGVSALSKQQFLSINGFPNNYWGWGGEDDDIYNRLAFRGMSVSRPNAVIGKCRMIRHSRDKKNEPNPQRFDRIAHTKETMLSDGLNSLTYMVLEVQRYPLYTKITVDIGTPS", "experiment": "Glycosyltransfer to trimmed trastuzumab with Gal-T1(Y289G) expressed in CHO", "format": "biochemical, bovine", "settings": "trimmed trastuzumab 10 mg/mL; UDP derivative 5 mM; enzyme 0.5 mg/mL; pH 8.0, 30° C. overnight", "excerpt": "A set of Gal-T 1 mutants encoding residues 74-402 of bovine Gal-T 1 were transiently expressed in CHO K1 cells by Evitria (Zurich, Switzerland) which include the Gal-T1 single mutants Y289L (represented by SEQ ID NO: 26), Y289F (represented by SEQ ID NO: 27), Y289M (represented by SEQ ID NO: 28), Y289V (represented by SEQ ID NO: 29), Y289A (represented by SEQ ID NO: 30), and Y289G (represented by SEQ ID NO: 31), and the Gal-T1 double mutants Y289L,C342T (represented by SEQ ID NO: 32), and Y289M,C342T (represented by SEQ ID NO: 33). The mutants were purified using a cation exchange column (Source 15S HR16/10 column, GE Healthcare) as described above. Purified proteins were analyzed by SDS-PAGE.\nTrimmed trastuzumab (10 mg/mL, […] obtained by Endo S treatment of trastuzumab, was incubated with the 4-azido-3,5-difluorobenzoyl derivative of UDP-galactosamine (23, 5 mM) and one of the Gal-T1 single mutants Y289L, Y289M, Y289A or Y289G (expressed in CHO as described above) (0.5 mg/mL) in 10 mM MnCl2 and 25 mM Tris-HCl pH 8.0 at 30° C. overnight. Mass spectral analysis of the reduced sample indicated a partial conversion of the core GlcNac(Fuc)-substituted trastuzumab heavy chain (49504 Da) into product 30 (49818 to 49825 Da, 20 to 50% of total heavy chain depending on the Gal-T1 mutant used), resulting from transfer of 23 to core GlcNAc(Fuc)-substituted trastuzumab heavy chain. […]"}},
  "data": [
    {"smiles": "[N-]=[N+]=Nc1c(F)cc(C(=O)N[C@H]2[C@@H](OP(=O)(O)OP(=O)(O)OC[C@H]3O[C@@H](n4ccc(=O)[nH]c4=O)[C@H](O)[C@@H]3O)O[C@H](CO)[C@H](O)[C@@H]2O)cc1F", "note": "[Compound 23, 4-azido-3,5-difluorobenzoyl Derivative of UDP-GalNH2]", "values": [
      {"measurement": "product, % of total heavy chain", "setting": "[1]", "value": "approximately 90%"},
      {"measurement": "observed conversion", "setting": "[2]", "value": "approximately 20%"}
    ]}
  ]
}
